Data from EP1566177A1, “The use of bisphosphonates for treating skin by stimulating of collagen synthesis” (Tigen Biotech Co., Ltd., priority 2004, dated 2005).

Assays:
Type in all cases: cell-based
[1] = tested on: fibroblasts isolated from human oral epithelium; experiment: RT-PCR analysis of type 1 collagen mRNA level, two-dimensional culture of oral fibroblasts; conditions: 100 ng/ml pamidronate together with 1mM vitamin C; cultured 1, 2 and 3 weeks (1WR, 2WR, 3WR) vs control medium without both
Procedure: (§1) The epithelium naturally exuded from a patient who had been undergoing a surgical operation due to oral diseases was mixed with […] DMEM (LG-DMEM, glucose 1g/L, GIBCO, MO, USA) medium, a first culture medium, and the mixture was pre-centrifuged to isolate cells. The cells were ultra-centrifuged using Percoll solution (SIGMA, MD, USA), thus isolating only nucleated cells. The nucleated cells isolated as described above cultured in an incubator under conditions of 5% (v/v) CO2 and 37.5 °C while replacing a second culture medium (high-glucose DMEM medium containing 10% bovine fetal serum) at two-day intervals, and only fibroblasts were isolated from the culture medium.
The isolated fibroblasts were cultured in said second culture medium under the same conditions for 2 days to saturate them. […]
The collagen mRNA levels of the 1-week cultured control group (1WC), the 2-week cultured control group (2WC), the 3-week cultured control group (3WC), the 1-week cultured test group (1WR), the 2-week cultured test group (2WR) and the 3-week cultured group (3WR), which had been collected in Example 1-2), were measured and compared with each other. […]

[2] = tested on: fibroblasts isolated from human dermis; experiment: Three-dimensional culture of dermal fibroblasts on PLGA support, haematoxylin-eosin staining of collagen layer; conditions: 100 nM pamidronate together with 1 mM vitamin C; 4 weeks; control: vitamin C alone
Procedure: A given amount of dermal tissue was excised from the skin of three normal persons. The excised human dermis from which an epidermal and fatty layer had been removed was finely cut and treated with collagenase so as to isolate dermis from epidermis. The isolated dermal tissue was cultured in 0.25% trypsin solution at 36 °C for 10 minutes. Then, the culture broth was vortexed to isolate fibroblasts. The isolated cells were collected and washed, and then cultured in a DMEM medium (GIBCO, MO, U.S.A.) containing 10% fetal bovine serum (FBS). At about 70% confluence, they were subcultured.
A PLGA-based, disc-shaped polymer support (Innotech., Korea) with a diameter of 10 mm, a thickness of 3 mm, an average pore size of 300-500 µm and a porosity of 90%, was used in three-dimensional culture. The support was treated with 100 %(v/v), 90 %(v/v), 70 %(v/v) and then 10 %(v/v) ethanol in order, at 4 °C for each treatment, and washed with PBS (phosphate buffered saline) and a second culture medium followed by drying. Next, 100 µl of a suspension of 1 x 10^6 dermal fibroblasts cultured as described above was plated on the support and cultured in a culture dish with a diameter of 60 mm. After two hours, 6 ml of the second culture medium as described above was added to the cells, and the mixture was cultured in a shaking incubator (30rpm). […]

[3] = tested on: fibroblasts isolated from human dermis; experiment: RT-PCR analysis of type 1 collagen mRNA level, two-dimensional culture of dermal fibroblasts
Procedure: Namely, total mRNA to be used in cDNA synthesis was isolated from the cells of the control and test groups using an RNeasy mini kit (QIAGEN, CA, USA). Then, the amount of the isolated total mRNA was calculated by measuring the absorbance at 260nm/280nm using an UV spectrophotometer (Eppendorf, Hamburg, Germany), thus quantifying the extracted mRNA and determining its purity (data not shown). Thereafter, 0.5 µg of the total mRNA was reacted with reverse transcriptase (Promega, WI, USA) using an oligo d(T) primer for one hour at 42 °C and for 5 minutes at 95 °C, and then the reaction was stopped at 4°C, thus synthesizing cDNA. The synthesized cDNA template was subjected to polymerase chain reaction (hereinafter, referred to as "PCR") using complementary primers of 5'-[sequence]-3' (SEQ ID NO: 1) (sense) and 5'-[sequence]-3' (SEQ ID NO: 2) (anti-sense). In the RT-PCR reaction, water was added to a reaction mixture of 0.5 µl of the template, 0.7 µl of each primer (10 pmole/µl) and PCR premix (Bioneer, Korea) to a final volume of 20 µl, and then, the aqueous mixture was pre-denatured at 94°C for 5 minutes using a thermal cycler and then subjected to 25 PCR cycles (each cycle consisting of 30 seconds at 94 °C, 30 seconds at 58 °C, and 30 seconds at 72 °C). Also, in the RT-PCR reaction, glyceraldehyde-3-phosphate dehydrogenase (GAPDH) was used as a positive control.
Then, the isolated fibroblasts were cultured in the second culture medium as described above under the same conditions for 2 days. Then, the cultured fibroblasts were supplied with a second culture medium containing 100 nM pamidronate at 3-day intervals and cultured in the medium for each period of 1 week, 2 weeks and 3 weeks. Also, fibroblasts cultured in a second culture medium containing 1mM vitamin C were used as a positive control group, and fibroblasts cultured in a secondary culture medium containing no vitamin C and pamidronate was used as a control group. […]

[4] = tested on: fibroblasts isolated from human dermis; experiment: Western blot analysis of type 1 collagen expression, two-dimensional culture of dermal fibroblasts
Excerpt: The levels of type 1 collagen in the 3-week cultured control group (3WC) and the 3-week cultured test group (3WR), which had been collected in Example 1-2), were compared with each other. For this purpose, each sample was subjected to Western blot analysis. In the Western blot analysis, each sample was electrophoresed on 8% SDS-PAGE gel, and the resulting collagen band was transferred to a nitrocellulose membrane and then treated with type 1 collagen monoclonal antibody (Abcam, Cambridge, UK) (see FIG. 2). In the Western blot analysis, actin was also used as a positive control group.
Fibroblasts were isolated from skin dermis and subcultured, in the same manner as in Example 2. Then, the isolated fibroblasts were cultured in the second culture medium as described above under the same conditions for 2 days. Then, the cultured fibroblasts were supplied with a second culture medium containing 100 nM pamidronate at 3-day intervals and cultured in the medium for each period of 1 week, 2 weeks and 3 weeks. […]
RT-PCR on each of the 1-week, 2-week and 3-week cultured control groups, the 1-week, 2-week and 3-week cultured test group administered with pamidronate, and the 1-week, 2-week and 3-week cultured positive control group administered with vitamin. […] The mRNA levels of type 1 collagen in the samples, as measured in the RT-PCR reactions, were shown in FIG. 4 for comparison with each other. […]

[5] = tested on: fibroblasts isolated from human oral epithelium; experiment: Western blot analysis of type 1 collagen protein level, two-dimensional culture of oral fibroblasts; conditions: 100 ng/ml pamidronate together with 1mM vitamin C; 3-week culture (3WR) vs control (3WC)
Procedure: as §1
The isolated fibroblasts were cultured in said second culture medium under the same conditions for 2 days to saturate them. Then, the saturated fibroblasts were cultured in a second culture medium containing 1mM vitamin C and 100 ng/ml pamidronate (Hanlim Pharm. Co., Ltd., Korea) for each period of 1 week, 2 weeks and 3 weeks, while replacing the medium at 3-day intervals. As a control group, a second culture medium containing no vitamin C and pamidronate was used.
The levels of type 1 collagen in the 3-week cultured control group (3WC) and the 3-week cultured test group (3WR), which had been collected in Example 1-2), were compared with each other. […]

## NCCC(O)(P(=O)(O)O)P(=O)(O)O [pamidronate, 3-amino-1-hydroxypropylidene-1,1-bisphosphonic acid]
[1]
  mRNA level of type 1 collagen: higher mRNA level than that of the 3-week cultured control group
[2]
  layer of collagen adhered to the surface of the PLGA support: much thicker than the case of addition of vitamin C alone
[3]; 100 nM pamidronate alone, cultured 1, 2 and 3 weeks
  mRNA level of type 1 collagen: high regardless of culture period
[4]; 100 nM pamidronate alone, three weeks of culture, compared with single addition of 1mM vitamin C
  expression level of type 1 collagen: remarkable increase
[5]
  type 1 collagen protein level: synthesized at a remarkably high level

## NCCCC(O)(P(=O)(O)O)P(=O)(O)O [alendronate, 4-amino-1-hydroxybutylidene-1,1-bisphospnonic acid]
[3]; alendronate alone, same concentration as pamidronate (100 nM), cultured one week, FIG. 6
  mRNA level of type 1 collagen: remarkably increased
[4]; alendronate alone, same concentration as pamidronate (100 nM), cultured one week, FIG. 7
  type 1 collagen protein (Western blot): remarkably increased

## O=C1O[C@H]([C@@H](O)CO)C(O)=C1O [vitamin C]
[3]; 1mM vitamin C alone (positive control), cultured 1, 2 and 3 weeks
  mRNA level of type 1 collagen: increased rapidly in the initial stage of culture, but it was reduced with an increase in culture time
